Our source for the IC50 values is patent US20250154163A1, “Pyrimidinone-Containing 17-Beta-Hydroxysteroid Dehydrogenase Type 13 Inhibitors” (ENANTA PHARMACEUTICALS, INC., priority 2023, published 2025).

The target of this assay is T1, human HSD17β13 (stable HEK293T cell line overexpressing human HSD17β13) (Homo sapiens, UniProt Q7Z5P4).
T1 construct: expressed in transfected cells
T1 sequence (Q7Z5P4 20-300): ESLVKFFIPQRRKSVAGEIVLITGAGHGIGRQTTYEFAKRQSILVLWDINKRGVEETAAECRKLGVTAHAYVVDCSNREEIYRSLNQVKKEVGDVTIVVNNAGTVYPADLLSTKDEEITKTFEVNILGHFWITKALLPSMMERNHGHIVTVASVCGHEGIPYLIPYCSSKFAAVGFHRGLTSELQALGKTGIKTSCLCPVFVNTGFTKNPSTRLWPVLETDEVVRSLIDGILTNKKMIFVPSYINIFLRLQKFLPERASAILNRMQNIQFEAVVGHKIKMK
Description: HSD17β13 inhibitor cell-based screening assay (conversion of estradiol-d2 to estrone-d2 by RF-MS). The following applies: conversion of estradiol-d2 to estrone-d2 after 24 hours. As for the experimental part: The purpose of this cell-based assay is to determine the cellular efficacy (IC50) of HSD17β13 inhibitors in a stable HEK293 T cell line overexpressing human HSD17β13. The assay measures by Rapid Fire mass-spectrometry (RF-MS) the conversion of estradiol-d2 to estrone-d2. Cytotoxicity was also assessed via luminescent signal generated by the ATPlite viability assay reagent. To screen compounds for HSD17013 inhibition, black 384-well plates were seeded with 1000× concentration of compounds in a 9-point 1:3 dilution curve (final top concentration of 10 μM) as well as 1000× concentration of 17β-estradiol-d2 (5 μM final concentration) added to all wells. HEK293T cells stably overexpressing human HSD17013 and the parent HEK293T cell lines were then seeded in the plates on top of the compounds and substrate in MEM media containing 1% charcoal/dextran-treated FBS. Supernatant is collected and immediately frozen after 24 hours of incubation, and conversion of estradiol-d2 to estrone-d2 is measured at Pure Honey by RF-MS. The remaining media in the plate was removed from the wells and replaced with ATPlite viability assay reagent. Luminescent signal from the ATPlite reagent was measured on the Envision plate reader. 10 μL of 10 mM compounds stocks (1000×) dissolved in DMSO were pipetted into the appropriate wells on the 384 LDV plate (Labcyte; cat. no.: LP-0200) and the appropriate volumes of DMSO solvent were included onto an intermediate plate to further dilute the compound stocks to complete the 9-pt dose curve (final top concentration of 10 μM). 10 μL per well of 5 mM estradiol-d2 (1000×) (Cayman; item no.: 9002846) (5 μM final concentration) dissolved in DMSO was seeded into the appropriate number of wells on the same source plate as the compounds. The Echo 650 (Labcyte) was used for compound dilutions and dispensing both the compounds and the substrate onto a dry 384-well black assay plate (Falcon/Corning; cat. no.:353962). Afterwards, cells were immediately counted and seeded onto the plate. Cells were cultured for expansion in EMEM (ATCC; cat. no.: 30-2003)+10% FBS (Hyclone; cat. no.: SH3007003)+1×PenStrep (Gibco; cat. no.: 15140-122). All media for stable cell line overexpressing HSD17013 also included […] zeocin (Invitrogen; cat. no.: 46-0509) for selection. To prepare cells for seeding into the 384-well assay plate, cells were trypsinized for 3 minutes in the incubator. The Trypsin-EDTA (0.25%) (Gibco; cat. no.: 25200056) was neutralized with EMEM complete culture medium warmed to 37° C. Cells were then centrifugated at 300×g for 5 minutes at room temperature. The cell pellet was resuspended in phenol red-free MEM (Gibco; cat. no.: 51200-038)+1% charcoal/dextran-treated FBS (Hyclone; cat. no.: SH3006803) and 1×PenStrep warmed to 37° C. Cells were then counted using the TC20 automated cell-counter (Bio-Rad) and disposable duel chamber counting slides (Bio-Rad; cat. no.: 1450016) for a cell density of 1.5E5 cells/mL to then seed into the assay plate at 7.5E3 cells/well with 50 μL of media per well. Prior to the 24-hour time point, a solution of 1% formic acid (10×) (Honeywell; cat. no.: 94318) in MEM phenol red-free MEM+1% charcoal/dextran-treated FBS and 1×PenStrep was made. ATPlite luminescent ATP detection reagent (PerkinElmer; cat. no.: 6016739) was prepared according to the manufacturer's instructions. A new 384-well Falcon plate (collection plate) was seeded with 2 μL per well of 10× formic acid and then 18 μL of cell supernatant was added onto the formic acid, resulting in a 20 μL per well solution of 0.1% formic acid (1×) in supernatant. The plate of collected supernatant was immediately frozen on dry ice before being stored at −80° C. The collection plate was shipped to Momentum Biotechnologies for analysis. The remaining supernatant in the assay plate was discarded and 25 μL of ATPlite reagent was added to each well. […]
With `Cc1ncc(Cn2c(-c3cc(F)c(F)cc3C3CC3)nc3sc4c(O)c(Cl)ccc4c3c2=O)o1` [Example 61, 7-chloro-2-(2-cyclopropyl-4,5-difluorophenyl)-8-hydroxy-3-((2-methyloxazol-5-yl)methyl)benzo[4,5]thieno[2,3-d]pyrimidin-4(3H)-one], the IC50 is less than 100 nM.

In turn, `O=c1c2c(nc(-c3cc(F)c(F)cc3C3CC3)n1Cc1ccno1)sc1c(O)c(Cl)ccc12` [Example 62, 7-chloro-2-(2-cyclopropyl-4,5-difluorophenyl)-8-hydroxy-3-(isoxazol-5-ylmethyl)benzo[4,5]thieno[2,3-d]pyrimidin-4(3H)-one] registered a 50% inhibitory concentration (IC50) of less than 100 nM.

`O=c1c2c(nc(-c3cc(F)c(F)cc3C3CC3)n1Cc1cc(C(F)F)no1)sc1c(O)c(Cl)ccc12` [Example 65, 7-chloro-2-(2-cyclopropyl-4,5-difluorophenyl)-3-((3-(difluoromethyl)isoxazol-5-yl)methyl)-8-hydroxybenzo[4,5]thieno[2,3-d]pyrimidin-4(3H)-one]: the IC50 was less than 100 nM.

In turn, `O=c1c2c(nc(-c3ccc(C(F)(F)F)nc3C3CC3)n1Cc1cnc(C(F)(F)F)nc1)sc1c(O)c(Cl)ccc12` [Example 67, 7-chloro-2-(2-cyclopropyl-6-(trifluoromethyl)pyridin-3-yl)-8-hydroxy-3-((2-(trifluoromethyl)pyrimidin-5-yl)methyl)benzo[4,5]thieno[2,3-d]pyrimidin-4(3H)-one] returned an IC50 of less than 100 nM.

Molecule `O=c1c2c(nc(-c3ccc(C(F)(F)F)nc3C3CC3)n1Cc1ccc(C(F)(F)F)nc1)sc1c(O)c(Cl)ccc12` [Example 68, 7-chloro-2-(2-cyclopropyl-6-(trifluoromethyl)pyridin-3-yl)-8-hydroxy-3-((6-(trifluoromethyl)pyridin-3-yl)methyl)benzo[4,5]thieno[2,3-d]pyrimidin-4(3H)-one] returned an IC50 of less than 100 nM.

Molecule `CS(=O)(=O)c1ccc(-c2nc3sc4c(O)c(Cl)ccc4c3c(=O)n2Cc2ccc(C(F)(F)F)nc2)c(C2CC2)c1` [Example 69, 7-chloro-2-(2-cyclopropyl-4-(methylsulfonyl)phenyl)-8-hydroxy-3-((6-(trifluoromethyl)pyridin-3-yl)methyl)benzo[4,5]thieno[2,3-d]pyrimidin-4(3H)-one] came in with an IC50 of less than 100 nM.

For the molecule `Cn1cc(Cn2c(-c3ccc(S(C)(=O)=O)cc3C3CC3)nc3sc4c(O)c(Cl)ccc4c3c2=O)ccc1=O` [Example 70, 7-chloro-2-(2-cyclopropyl-4-(methylsulfonyl)phenyl)-8-hydroxy-3-((1-methyl-6-oxo-1,6-dihydropyridin-3-yl)methyl)benzo[4,5]thieno[2,3-d]pyrimidin-4(3H)-one], the IC50 is less than 100 nM.

`COCCOc1ccc(-c2nc3sc4c(O)c(Cl)ccc4c3c(=O)n2Cc2cnco2)c(C2CC2)c1` [Example 74] returned a 50% inhibitory concentration (IC50) of less than 100 nM.

`CS(=O)(=O)c1ccc(-c2nc3sc4c(O)c(Cl)ccc4c3c(=O)n2Cc2cnco2)c(C2CC2)c1` [Example 80] came in with an IC50 of less than 100 nM.

`CS(=O)(=O)c1ccc(-c2nc3sc4c(O)c(Cl)ccc4c3c(=O)n2Cc2cc(C(F)(F)F)no2)c(C2CC2)c1` [Example 81] returned an IC50 of less than 100 nM.

Regarding `O=c1c2c(nc(-c3cc(F)c(Cl)cc3C3CC3)n1Cc1cc(C(F)(F)F)no1)sc1c(O)c(Cl)ccc12` [Example 84], the IC50 is less than 100 nM.

`O=c1c2c(nc(-c3ccccc3C3CC3)n1Cc1cnco1)sc1c(O)c(Cl)ccc12` [Example 87] came in with an IC50 of less than 100 nM.

Molecule `COc1ccc(-c2nc3sc4c(O)c(Cl)ccc4c3c(=O)n2C[C@@H]2CC(=O)N(C)C2)c(C2CC2)c1` [Example 88] registered an IC50 of less than 100 nM.

With `O=c1c2c(nc(-c3ncc(F)cc3C3CC3)n1Cc1cnco1)sc1c(O)c(Cl)ccc12` [Example 89], the IC50 is less than 100 nM.

`O=c1c2c(nc(-c3ncc(C(F)(F)F)cc3C3CC3)n1Cc1cnco1)sc1c(O)c(Cl)ccc12` [Example 90] yielded an IC50 of less than 100 nM.

Take `Cc1cc(-c2nc3sc4c(O)c(Cl)ccc4c3c(=O)n2Cc2cnco2)c(C2CC2)s1` [Example 91]: the IC50 is less than 100 nM.

The molecule `O=c1c2c(nc(-c3ccc(C(F)(F)F)nc3C3CC3)n1Cc1cnco1)sc1c(O)c(Cl)ccc12` [Example 92] returned an IC50 of less than 100 nM.

On to `COc1ccc(-c2nc3sc4c(O)c(Cl)ccc4c3c(=O)n2Cc2cnco2)c(C2CC2)n1` [Example 93], for which the half-inhibitory concentration (IC50) is less than 100 nM.

Turning to `Cc1cc(C2CC2)c(-c2nc3sc4c(O)c(Cl)ccc4c3c(=O)n2Cc2cnco2)s1` [Example 94], the IC50 was less than 100 nM.

As to `COCCn1cc(Cn2c(-c3ccc(OC)cc3C3CC3)nc3sc4c(O)c(Cl)ccc4c3c2=O)cn1` [Example 95], the IC50 is less than 100 nM.

Consider `N#Cc1ccc(-c2nc3sc4c(O)c(Cl)ccc4c3c(=O)n2Cc2cc(C(F)(F)F)no2)c(C2CC2)c1` [Example 98], for which the 50% inhibitory concentration (IC50) was less than 100 nM.

Turning to `O=c1c2c(nc(-c3ncc(C(F)(F)F)cc3C3CC3)n1Cc1ccc(C(F)(F)F)nc1)sc1c(O)c(Cl)ccc12` [Example 100], the IC50 is less than 100 nM.

As to `O=c1c2c(nc(-c3ncc(F)cc3C3CC3)n1Cc1cnc(C(F)(F)F)nc1)sc1c(O)c(Cl)ccc12` [Example 101], the IC50 is less than 100 nM.

Consider `O=c1c2c(nc(-c3ncc(F)cc3C3CC3)n1Cc1ccc(C(F)(F)F)nc1)sc1c(O)c(Cl)ccc12` [Example 102], for which the IC50 was less than 100 nM.

Take `O=c1c2c(nc(-c3ncc(Cl)cc3C3CC3)n1Cc1cc(C(F)(F)F)no1)sc1c(O)c(Cl)ccc12` [Example 103]: the IC50 was less than 100 nM.

In turn, `COc1cc(C2CC2)c(-c2nc3sc4c(O)c(Cl)ccc4c3c(=O)n2Cc2cnco2)cc1Br` [Example 104, 2-(5-bromo-2-cyclopropyl-4-methoxyphenyl)-7-chloro-8-hydroxy-3-(oxazol-5-ylmethyl)benzo[4,5]thieno[2,3-d]pyrimidin-4(3H)-one] displayed an IC50 of less than 100 nM.

Consider `COc1cc(C2CC2)c(-c2nc3sc4c(O)c(Cl)ccc4c3c(=O)n2Cc2cnco2)cc1C1CC1` [Example 107, 7-chloro-2-(2,5-dicyclopropyl-4-methoxyphenyl)-8-hydroxy-3-(oxazol-5-ylmethyl)benzo[4,5]thieno[2,3-d]pyrimidin-4(3H)-one], for which the IC50 was in the range of 100 to 500 nM.

`COc1cc(C2CC2)c(-c2nc3sc4c(O)c(Cl)ccc4c3c(=O)n2Cc2cnco2)cc1C` [Example 108] registered an IC50 of less than 100 nM.

`COc1cc(C2CC2)c(-c2nc3sc4c(O)c(Cl)ccc4c3c(=O)n2Cc2cnco2)cc1C1CCCC1` [Example 109, 7-chloro-2-(5-cyclopentyl-2-cyclopropyl-4-methoxyphenyl)-8-hydroxy-3-(oxazol-5-ylmethyl)benzo[4,5]thieno[2,3-d]pyrimidin-4(3H)-one]: the IC50 was in the range of 500 to 1000 nM.

For `O=c1c2c(nc(-c3ccc(-c4ncco4)cc3C3CC3)n1Cc1cnco1)sc1c(O)c(Cl)ccc12` [Example 110, 7-chloro-2-(2-cyclopropyl-4-(oxazol-2-yl)phenyl)-8-hydroxy-3-(oxazol-5-ylmethyl)benzo[4,5]thieno[2,3-d]pyrimidin-4(3H)-one], the IC50 is less than 100 nM.

For orientation: IC50 means the concentration needed to halve the response being measured. Higher therefore signals lower potency.
